Experimental data: PMC5761851, “Application of a phenotypic drug discovery strategy to identify biological and chemical starting points for inhibition of TSLP production in lung epithelial cells” (PLoS ONE, 2018)
Where “and” joins values, the source holds several entries; their conditions need not be identical. Identical values can stand only once. Like-named read-outs stand apart in the source and are kept apart here.

Key:
Syk = Syk (Homo sapiens, UniProt P43405); experiment: Enzymatic Syk kinase activity assay; format: biochemical
SKCa channel = experiment: BioPrint panel: SKCa channel (antagonist); format: binding; conditions: 1 micromolar
Source text: (§1) Supplement pone.0189247.s004.xlsx, sheet "Bioprint Selectivity Panel" | column: %

NOP (ORL1) = target: T1, NOP (ORL1) (Homo sapiens, UniProt P41146); experiment: BioPrint panel: NOP (ORL1) (h) (agonist); format: binding; conditions: 1 micromolar, read-out: percentage of inhibition of activity
T1 construct: purchased Eurofins Pharma Discovery Services (KinaseProfiler; Cerep BioPrint panel)
Source text: as §1

[1] = test system: human primary cell culture and co-culture systems; experiment: BioMAP Diversity PLUS phenotypic profiling; format: cell-based
Source text: The concept of the BioMAP® Diversity PLUS™ Platform™ (DiscoverX) has been previously described. The platform is comprised of 12 specific combinations of human primary cell culture and co-culture systems stimulated with a range of physiological and disease relevant stimuli (S2 Table). The resulting activities define a bioactivity fingerprint that was used to search for similar patterns of biological responses across the BioMAP® reference database of >3,000 compounds, biologics, approved drugs and experimental agents. Compound 4 was tested at 0.111 μM, 0.333 μM, 1 μM and 3 μM concentrations.

inducible NOS = target: T2, inducible NOS (Mus musculus, UniProt P29477); experiment: BioPrint panel: inducible NOS; format: biochemical; conditions: 1 micromolar, read-out: percentage of inhibition of activity
T2 construct: purchased Eurofins Pharma Discovery Services (KinaseProfiler; Cerep BioPrint panel)
Source text: as §1

PDE5 = target: T3, PDE5 (Homo sapiens, UniProt O76074); experiment: BioPrint panel: PDE5; format: biochemical
T3 construct: Eurofins Pharma Discovery Services (contract assay service)
Experimental: General selectivity profiling was performed at Eurofins Pharma Discovery Services using the BioPrint® panel and reference database. The panel included 104 binding assays (non-peptide, peptide and nuclear receptors, ion channels and amine transporters) and 41 cell based and enzyme assays (including 10 kinases, 9 proteases and 5 phosphodiesterases) (S4 Table). More than 70% were human targets. Compound 4 was tested at a concentration of 1 μM in duplicate (10 μM for P-gp and CYP enzymes). The resulting bioactivity fingerprint was compared with a database of >2,500 BioPrint marketed drugs and reference compounds. IC50 values for selected activities were further characterized at 8 concentrations in duplicate.

CaMK2alpha = target: T4, CaMK2alpha (Homo sapiens, UniProt Q9UQM7); experiment: BioPrint panel: CaMK2alpha (h); format: biochemical; conditions: 1 micromolar, read-out: percentage of inhibition of activity
T4 construct: purchased Eurofins Pharma Discovery Services (KinaseProfiler; Cerep BioPrint panel)
Source text: as §1

[2] = test system: Ca2+ channel (L, verapamil site); experiment: BioPrint panel: Ca2+ channel (L, verapamil site) (antagonist); format: binding; conditions: 1 micromolar
Source text: as §1

neutral endopeptidase = target: T5, neutral endopeptidase (Homo sapiens, UniProt P08473); experiment: BioPrint panel: neutral endopeptidase (h); format: biochemical; conditions: 1 micromolar, read-out: percentage of inhibition of activity
T5 construct: purchased Eurofins Pharma Discovery Services (KinaseProfiler; Cerep BioPrint panel)
Source text: as §1

P-gp = target: T6, P-gp (Homo sapiens, UniProt P08183); experiment: BioPrint panel: P-gp (MDR1-MDCKII, calcein AM substrate); format: in vitro ADME; conditions: 10 micromolar
T6 construct: purchased Eurofins Pharma Discovery Services (KinaseProfiler; Cerep BioPrint panel)
Source text: as §1

Fyn = target: T7, Fyn (Homo sapiens, UniProt P06241); experiment: BioPrint panel: Fyn kinase (h); format: biochemical; conditions: 1 micromolar, read-out: percentage of inhibition of activity
T7 construct: purchased Eurofins Pharma Discovery Services (KinaseProfiler; Cerep BioPrint panel)
Source text: as §1

Y1 = target: T8, Y1 (Homo sapiens, UniProt P25929); experiment: BioPrint panel: Y1 (h) (agonist); format: binding; conditions: 1 micromolar, read-out: percentage of inhibition of activity
T8 construct: purchased Eurofins Pharma Discovery Services (KinaseProfiler; Cerep BioPrint panel)
Source text: as §1

dopamine transporter = target: T9, dopamine transporter (Homo sapiens, UniProt Q01959); experiment: BioPrint panel: dopamine transporter (h) (antagonist); format: binding; conditions: 1 micromolar, read-out: percentage of inhibition of activity
T9 construct: purchased Eurofins Pharma Discovery Services (KinaseProfiler; Cerep BioPrint panel)
Source text: as §1

B2 = target: T10, B2 (Homo sapiens, UniProt P30411); experiment: BioPrint panel: B2 (h) (agonist); format: binding; conditions: 1 micromolar, read-out: percentage of inhibition of activity
T10 construct: purchased Eurofins Pharma Discovery Services (KinaseProfiler; Cerep BioPrint panel)
Source text: as §1

FLT-1 kinase (VEGFR1) = target: T11, FLT-1 kinase (VEGFR1) (Homo sapiens, UniProt P17948); experiment: BioPrint panel: FLT-1 kinase (h) (VEGFR1); format: biochemical; conditions: 1 micromolar, read-out: percentage of inhibition of activity
T11 construct: purchased Eurofins Pharma Discovery Services (KinaseProfiler; Cerep BioPrint panel)
Source text: as §1

H1 = target: T12, H1 (Homo sapiens, UniProt P35367); experiment: BioPrint panel: H1 (h) (antagonist); format: binding; conditions: 1 micromolar, read-out: percentage of inhibition of activity
T12 construct: purchased Eurofins Pharma Discovery Services (KinaseProfiler; Cerep BioPrint panel)
Source text: as §1

EP2 = target: T13, EP2 (Homo sapiens, UniProt P43116); experiment: BioPrint panel: EP2 (h) (agonist); format: binding; conditions: 1 micromolar, read-out: percentage of inhibition of activity
T13 construct: purchased Eurofins Pharma Discovery Services (KinaseProfiler; Cerep BioPrint panel)
Source text: as §1

alpha 2A = target: T14, alpha 2A (Homo sapiens, UniProt P08913); experiment: BioPrint panel: alpha 2A (h) (antagonist); format: binding; conditions: 1 micromolar, read-out: percentage of inhibition of activity
T14 construct: purchased Eurofins Pharma Discovery Services (KinaseProfiler; Cerep BioPrint panel)
Source text: as §1

AT1 = target: T15, AT1 (Homo sapiens, UniProt P30556); experiment: BioPrint panel: AT1 (h) (antagonist); format: binding; conditions: 1 micromolar, read-out: percentage of inhibition of activity
T15 construct: purchased Eurofins Pharma Discovery Services (KinaseProfiler; Cerep BioPrint panel)
Source text: as §1

alpha 2B = target: T16, alpha 2B (Homo sapiens, UniProt P18089); experiment: BioPrint panel: alpha 2B (h) (antagonist); format: binding; conditions: 1 micromolar, read-out: percentage of inhibition of activity
T16 construct: purchased Eurofins Pharma Discovery Services (KinaseProfiler; Cerep BioPrint panel)
Source text: as §1

MC3 = target: T17, MC3 (Homo sapiens, UniProt P41968); experiment: BioPrint panel: MC3 (h) (agonist); format: binding; conditions: 1 micromolar, read-out: percentage of inhibition of activity
T17 construct: purchased Eurofins Pharma Discovery Services (KinaseProfiler; Cerep BioPrint panel)
Source text: as §1

caspase-3 = target: T18, caspase-3 (Homo sapiens, UniProt P42574); experiment: BioPrint panel: caspase-3 (h); format: biochemical; conditions: 1 micromolar, read-out: percentage of inhibition of activity
T18 construct: purchased Eurofins Pharma Discovery Services (KinaseProfiler; Cerep BioPrint panel)
Source text: as §1

[3] = test system: glycine (strychnine-insensitive); experiment: BioPrint panel: glycine (strychnine-insensitive)(antagonist); format: binding; conditions: 1 micromolar
Source text: as §1

MCH1 = target: T19, MCH1 (Homo sapiens, UniProt Q99705); experiment: BioPrint panel: MCH1 (h) (agonist); format: binding; conditions: 1 micromolar, read-out: percentage of inhibition of activity
T19 construct: purchased Eurofins Pharma Discovery Services (KinaseProfiler; Cerep BioPrint panel)
Source text: as §1

sst4 = target: T20, sst4 (Homo sapiens, UniProt P31391); experiment: BioPrint panel: sst4 (h) (agonist); format: binding; conditions: 1 micromolar, read-out: percentage of inhibition of activity
T20 construct: purchased Eurofins Pharma Discovery Services (KinaseProfiler; Cerep BioPrint panel)
Source text: as §1

CCK2 (CCKB) = target: T21, CCK2 (CCKB) (Homo sapiens, UniProt P32239); experiment: BioPrint panel: CCK2 (CCKB) (h) (agonist); format: binding; conditions: 1 micromolar, read-out: percentage of inhibition of activity
T21 construct: purchased Eurofins Pharma Discovery Services (KinaseProfiler; Cerep BioPrint panel)
Source text: as §1

T1 sequence (P41146 whole entry): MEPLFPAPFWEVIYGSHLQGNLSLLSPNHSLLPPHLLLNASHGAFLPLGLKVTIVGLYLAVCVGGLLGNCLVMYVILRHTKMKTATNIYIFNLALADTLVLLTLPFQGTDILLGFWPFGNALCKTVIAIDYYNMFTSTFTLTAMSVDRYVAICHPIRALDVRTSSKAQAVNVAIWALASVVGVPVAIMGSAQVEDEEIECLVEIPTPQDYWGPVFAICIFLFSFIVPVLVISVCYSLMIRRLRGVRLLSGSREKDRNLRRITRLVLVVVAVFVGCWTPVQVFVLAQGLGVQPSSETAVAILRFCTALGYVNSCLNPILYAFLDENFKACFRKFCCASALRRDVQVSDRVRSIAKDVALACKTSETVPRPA
T11 sequence (P17948 27-1338): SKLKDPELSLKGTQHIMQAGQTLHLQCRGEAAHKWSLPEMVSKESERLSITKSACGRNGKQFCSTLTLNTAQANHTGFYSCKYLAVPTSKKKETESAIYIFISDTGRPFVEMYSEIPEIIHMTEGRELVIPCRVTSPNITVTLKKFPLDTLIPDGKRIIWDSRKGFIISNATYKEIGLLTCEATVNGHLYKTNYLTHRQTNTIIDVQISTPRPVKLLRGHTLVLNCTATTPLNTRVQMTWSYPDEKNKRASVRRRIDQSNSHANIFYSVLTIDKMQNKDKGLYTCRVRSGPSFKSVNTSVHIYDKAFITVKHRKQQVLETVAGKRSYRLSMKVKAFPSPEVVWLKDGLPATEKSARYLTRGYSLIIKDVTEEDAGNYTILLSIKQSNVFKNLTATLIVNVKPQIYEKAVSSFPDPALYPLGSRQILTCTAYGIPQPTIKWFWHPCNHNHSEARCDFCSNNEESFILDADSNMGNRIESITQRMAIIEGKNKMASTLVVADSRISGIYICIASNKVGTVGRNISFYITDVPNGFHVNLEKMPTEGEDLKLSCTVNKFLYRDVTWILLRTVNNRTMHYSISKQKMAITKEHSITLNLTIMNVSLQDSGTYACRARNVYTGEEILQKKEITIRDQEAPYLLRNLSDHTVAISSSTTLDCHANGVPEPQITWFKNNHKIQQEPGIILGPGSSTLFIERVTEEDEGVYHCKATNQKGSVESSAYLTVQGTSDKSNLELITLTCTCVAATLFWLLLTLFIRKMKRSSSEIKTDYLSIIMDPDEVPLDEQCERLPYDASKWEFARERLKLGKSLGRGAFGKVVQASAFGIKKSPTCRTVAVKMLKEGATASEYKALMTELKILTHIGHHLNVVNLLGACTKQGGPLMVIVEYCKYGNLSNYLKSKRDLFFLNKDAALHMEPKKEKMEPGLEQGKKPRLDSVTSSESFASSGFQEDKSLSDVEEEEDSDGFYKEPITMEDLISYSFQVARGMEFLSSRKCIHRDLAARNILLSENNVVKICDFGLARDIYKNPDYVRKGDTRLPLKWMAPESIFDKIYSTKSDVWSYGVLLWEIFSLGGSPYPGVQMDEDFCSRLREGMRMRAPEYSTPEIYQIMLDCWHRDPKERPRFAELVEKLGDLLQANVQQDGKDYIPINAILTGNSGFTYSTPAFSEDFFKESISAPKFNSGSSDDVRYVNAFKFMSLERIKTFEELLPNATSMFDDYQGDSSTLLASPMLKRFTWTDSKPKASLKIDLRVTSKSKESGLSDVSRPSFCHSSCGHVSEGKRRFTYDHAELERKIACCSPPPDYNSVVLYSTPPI
T4 sequence (Q9UQM7 whole entry): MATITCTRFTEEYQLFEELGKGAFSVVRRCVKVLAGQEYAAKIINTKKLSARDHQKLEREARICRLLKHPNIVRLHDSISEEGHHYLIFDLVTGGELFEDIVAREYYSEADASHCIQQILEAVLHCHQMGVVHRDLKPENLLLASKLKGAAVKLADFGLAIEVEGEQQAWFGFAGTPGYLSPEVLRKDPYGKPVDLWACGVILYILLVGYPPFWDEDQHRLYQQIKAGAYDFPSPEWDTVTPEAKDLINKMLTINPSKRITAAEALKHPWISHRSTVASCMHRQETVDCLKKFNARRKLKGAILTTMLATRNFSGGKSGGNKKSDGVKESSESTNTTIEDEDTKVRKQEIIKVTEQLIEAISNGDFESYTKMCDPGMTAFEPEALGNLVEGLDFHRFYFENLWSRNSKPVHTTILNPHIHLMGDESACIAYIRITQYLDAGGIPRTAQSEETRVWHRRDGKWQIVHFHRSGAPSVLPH
T12 sequence (P35367 whole entry): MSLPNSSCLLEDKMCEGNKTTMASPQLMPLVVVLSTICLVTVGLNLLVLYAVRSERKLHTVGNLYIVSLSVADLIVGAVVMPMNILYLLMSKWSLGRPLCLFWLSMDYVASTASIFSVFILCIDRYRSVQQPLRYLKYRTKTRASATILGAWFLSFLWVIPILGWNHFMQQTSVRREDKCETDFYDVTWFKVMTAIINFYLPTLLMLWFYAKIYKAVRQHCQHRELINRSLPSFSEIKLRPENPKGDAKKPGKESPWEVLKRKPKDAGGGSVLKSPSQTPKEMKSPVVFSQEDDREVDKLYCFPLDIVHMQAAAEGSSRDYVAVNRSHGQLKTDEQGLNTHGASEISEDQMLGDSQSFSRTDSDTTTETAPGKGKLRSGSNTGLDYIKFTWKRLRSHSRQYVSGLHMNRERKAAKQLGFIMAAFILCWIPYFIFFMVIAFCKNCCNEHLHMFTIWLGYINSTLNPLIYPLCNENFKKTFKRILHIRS
T15 sequence (P30556 whole entry): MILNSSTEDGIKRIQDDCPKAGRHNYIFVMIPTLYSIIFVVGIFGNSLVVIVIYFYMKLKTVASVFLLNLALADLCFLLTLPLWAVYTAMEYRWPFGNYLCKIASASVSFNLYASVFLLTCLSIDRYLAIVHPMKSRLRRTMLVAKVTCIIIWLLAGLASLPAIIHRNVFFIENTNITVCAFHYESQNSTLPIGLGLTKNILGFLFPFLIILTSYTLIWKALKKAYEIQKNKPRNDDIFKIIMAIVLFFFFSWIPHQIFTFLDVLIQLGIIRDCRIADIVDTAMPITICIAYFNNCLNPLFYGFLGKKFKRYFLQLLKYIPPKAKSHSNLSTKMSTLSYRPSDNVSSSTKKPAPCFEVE
T13 sequence (P43116 whole entry): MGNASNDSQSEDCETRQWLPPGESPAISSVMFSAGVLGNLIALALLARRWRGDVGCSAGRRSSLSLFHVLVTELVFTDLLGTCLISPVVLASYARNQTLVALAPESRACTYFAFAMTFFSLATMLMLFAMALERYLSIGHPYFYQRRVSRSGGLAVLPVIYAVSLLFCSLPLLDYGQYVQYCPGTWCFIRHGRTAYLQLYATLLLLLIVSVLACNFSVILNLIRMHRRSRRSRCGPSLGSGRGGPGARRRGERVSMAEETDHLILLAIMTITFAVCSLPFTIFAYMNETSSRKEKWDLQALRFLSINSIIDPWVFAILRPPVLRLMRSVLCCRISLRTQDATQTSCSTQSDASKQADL
T21 sequence (P32239 whole entry): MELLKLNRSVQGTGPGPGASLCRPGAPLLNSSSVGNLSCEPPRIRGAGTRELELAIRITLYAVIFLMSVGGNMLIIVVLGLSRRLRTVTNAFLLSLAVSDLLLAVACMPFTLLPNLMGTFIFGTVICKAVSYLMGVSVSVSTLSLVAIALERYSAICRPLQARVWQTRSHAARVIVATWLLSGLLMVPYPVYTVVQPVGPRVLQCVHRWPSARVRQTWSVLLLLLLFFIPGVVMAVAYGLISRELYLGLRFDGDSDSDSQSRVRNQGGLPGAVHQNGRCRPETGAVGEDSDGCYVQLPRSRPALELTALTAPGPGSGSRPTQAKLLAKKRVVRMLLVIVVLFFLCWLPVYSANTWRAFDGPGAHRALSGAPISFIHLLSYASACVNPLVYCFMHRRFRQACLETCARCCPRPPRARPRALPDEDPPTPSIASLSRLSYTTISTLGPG
T18 sequence (P42574 29-175 limits assumed): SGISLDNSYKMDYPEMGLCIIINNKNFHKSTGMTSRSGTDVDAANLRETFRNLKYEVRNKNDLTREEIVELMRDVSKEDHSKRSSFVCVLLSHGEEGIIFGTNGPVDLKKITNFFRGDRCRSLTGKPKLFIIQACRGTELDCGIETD
T18 sequence (P42574 176-277 limits assumed): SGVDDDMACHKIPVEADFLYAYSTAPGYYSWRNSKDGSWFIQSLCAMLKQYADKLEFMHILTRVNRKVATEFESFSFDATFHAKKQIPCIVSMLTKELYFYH
T7 sequence (P06241 whole entry): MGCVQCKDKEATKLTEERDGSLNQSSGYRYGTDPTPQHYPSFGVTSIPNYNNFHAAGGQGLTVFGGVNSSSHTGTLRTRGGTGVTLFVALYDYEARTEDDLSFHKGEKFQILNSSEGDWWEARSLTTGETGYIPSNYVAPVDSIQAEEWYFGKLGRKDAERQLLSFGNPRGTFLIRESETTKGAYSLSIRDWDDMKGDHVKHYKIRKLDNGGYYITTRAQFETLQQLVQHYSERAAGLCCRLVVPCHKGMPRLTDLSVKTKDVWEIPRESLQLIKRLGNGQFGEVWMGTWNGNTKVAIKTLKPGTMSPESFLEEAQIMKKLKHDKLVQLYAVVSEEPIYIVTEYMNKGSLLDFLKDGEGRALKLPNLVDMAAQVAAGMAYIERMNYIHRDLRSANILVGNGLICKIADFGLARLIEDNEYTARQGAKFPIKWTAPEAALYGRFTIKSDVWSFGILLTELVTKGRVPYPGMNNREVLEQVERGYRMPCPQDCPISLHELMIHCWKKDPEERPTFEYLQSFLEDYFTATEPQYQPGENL
T19 sequence (Q99705 whole entry): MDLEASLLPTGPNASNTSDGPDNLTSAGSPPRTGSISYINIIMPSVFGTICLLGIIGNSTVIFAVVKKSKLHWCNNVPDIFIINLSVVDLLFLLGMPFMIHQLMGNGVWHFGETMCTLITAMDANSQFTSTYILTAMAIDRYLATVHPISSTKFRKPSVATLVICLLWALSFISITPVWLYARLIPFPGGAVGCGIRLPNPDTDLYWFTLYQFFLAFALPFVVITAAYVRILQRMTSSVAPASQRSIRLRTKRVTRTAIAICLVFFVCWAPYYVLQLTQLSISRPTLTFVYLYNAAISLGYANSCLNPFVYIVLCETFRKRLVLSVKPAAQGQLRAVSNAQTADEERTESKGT

In the case of `Cn1cc(-c2cccc(-c3nc(C(=O)NC4C5CC6CC4CC(O)(C6)C5)c(N)nc3N)c2)cn1` (stereo not drawn) [compound 4], the IC50 (Syk; geometric mean, read-out: Activity in reference biochemical assay (IC50, μM) (95% CI) Syk) is reported as 11.8 µM, the IC50 (Syk; individual values, read-out: Biochemical activity (IC50, mM) (Syk)) is reported as 12.2 µM and 11.4 µM and the “percentage of inhibition of activity” value (SKCa channel) is reported as -10.2%. The inhibition at 1 µM (NOP (ORL1)) was 12.3%, the “cytotoxicity in the 3C system” value ([1]; 1 μM, 3C (HuVEC)) was “cytotoxicity” and the “cytotoxicity in BioMAP activated cellular systems” value ([1]; 3 μM) was “cytotoxic to B cells, fibroblasts and particularly endothelial cells”. The “IL-8 levels in lung fibroblasts (MyoF)” value ([1]; 0.111 and 0.333 μM) was “increased”, the “VCAM-1 expression in endothelial cells (3C)” value ([1]; 0.111 and 0.333 μM) was “reduced” and the “anti-proliferative activity in BioMAP systems” value ([1]; 0.111 and 0.333 μM) was “anti-proliferative to endothelial cells, T and B cells, smooth muscle cells and fibroblasts”. For the same compound, the “sIL10 levels in the endothelial cell / macrophage system (/Mphg)” value ([1]; 0.111 and 0.333 μM) was “decreased”, the “sIL17A, sIL17F and sIL6 levels in the B / PMBC cell system (BT)” value ([1]; 0.111 and 0.333 μM) was “decreased” and the “endpoints inhibited out of 32 measured in the NHBE (BE3C) and NHBE / fibroblasts (B4FT) systems” value ([1]; 0.111–0.333 μM, tPA and Eotaxin 3) was 2. It also gave an inhibition at 1 µM (inducible NOS) of -8.8%, an inhibition at 1 µM (PDE5; 1 μM, read-out: inhibition of PDE5) of 61% and an inhibition at 1 µM (PDE5; 1 micromolar, PDE5 (h) (non-selective), read-out: percentage of inhibition of activity) of 61.5%. For the same compound, the IC50 (PDE5; dose response, duplicate, read-out: Inhibition of indicated activity (IC50, μM): PDE5) was 0.92 µM, the inhibition at 1 µM (CaMK2alpha) was -53.9% and the “percentage of inhibition of activity” value [2] was 6.4%. The inhibition at 1 µM (neutral endopeptidase) was 15.6%, the “percentage of inhibition of activity” value (P-gp) was 82.8% and the inhibition at 1 µM (Fyn) was -9.2%. For the same compound, the inhibition at 1 µM (Y1) was -9.2%, the inhibition at 1 µM (dopamine transporter) was 7.5% and the inhibition at 1 µM (B2) was -1%. It also gave an inhibition at 1 µM (FLT-1 kinase (VEGFR1)) of -4.8%, an inhibition at 1 µM (H1) of -0.5% and an inhibition at 1 µM (EP2) of -23.9%. The inhibition at 1 µM (alpha 2A) was 6.2%, the inhibition at 1 µM (AT1) was -6.4% and the inhibition at 1 µM (alpha 2B) was -6.6%. For the same compound, the inhibition at 1 µM (MC3) was 8.8%, the inhibition at 1 µM (caspase-3) was 3.9% and the “percentage of inhibition of activity” value [3] was -5.3%. It also gave an inhibition at 1 µM (MCH1) of 34.6%, an inhibition at 1 µM (sst4) of -11.8% and an inhibition at 1 µM (CCK2 (CCKB)) of -3.4%.
